The values that follow come from patent US12110295B2, “WD40 repeat domain protein 5 (WDR5) degradation/disruption compounds and methods of use” (Icahn School of Medicine at Mount Sinai, priority 2018, dated 2024).

Each structure is given as a SMILES string.

The target of this assay is WDR5 (Homo sapiens, UniProt P61964). Nature of the assay: Screening of putative WDR5 degraders by Western blot in MV4;11 and/or MIAPACA2 cells. Format: cell-based. Also on record: After WDR5 degrader treatment, cells were collected and lysed; endogenous in cells; host or cells: MV4;11 and/or MIAPACA2. To be noted: summary of screening, FIGS. 6-10. The protocol:
MV4;11 cells were treated with DMSO or indicated compounds at 0.1 μM and 0.5 μM for 18 hours. […]. MIAPACA2 cells were treated with DMSO or indicated compounds at 0.5 μM and 1.0 μM for 18 hours.
MIAPACA2 cells were treated with DMSO or indicated compounds at 0.1 μM and 0.5 μM for 18 hours.
MIAPACA2 cells were treated with DMSO or indicated compounds at 0.5 μM and 1.0 μM or at 1.0 μM and 10 μM for 18 hours.
MV4;11 cells were treated with DMSO or indicated compounds at 0.1 μM and 1.0 μM for 18 hours.
WDR5 degraders were dissolved in DMSO and DMSO with no degraders was used as the control. 1×10^6 MV4;11 cells or 1×10^5 MIAPACA2 or 2×10^5 Hela cells were seeded in 2 mL medium for each well in […].
For prescreening of all the compounds, each test compound was added to the medium at indicated concentrations. After 18 h treatment, cells were collected.
After WDR5 degrader treatment, cells were collected and lysed. Total cell lysates were used for western blot. The following primary antibodies were used: WDR5 (Santa Cruz), vinculin (Cell Signaling Technology), tubulin (Cell Signaling Technology), GAPDH (Santa Cruz). Blots were imaged using fluorescence-labeled secondary antibodies on ChemiDoc™ Imaging Systems.
As for `Cc1ncsc1-c1ccc(CNC(=O)[C@@H]2C[C@@H](O)CN2C(=O)[C@@H](NC(=O)COCCOCCOCC(=O)N2CCN(c3ncc(-c4cc(NC(=O)c5ccc(F)cc5C(F)(F)F)c(N5C[C@@H](C)N(C)[C@@H](C)C5)cc4F)cn3)CC2)C(C)(C)C)cc1` [XF078-103, (2S,4R)-1-((S)-2-(tert-butyl)-14-(4-(5-(2-fluoro-5-(4-fluoro-2-(trifluoromethyl)benzamido)-4-((3S,5R)-3,4,5-trimethylpiperazin-1-yl)phenyl)pyrimidin-2-yl)piperazin-1-yl)-4,14-dioxo-6,9,12-trioxa-3-azatetradecanoyl)-4-hydroxy-N-(4-(4-methylthiazol-5-yl)benzyl)pyrrolidine-2-carboxamide], the “effective degradation of WDR5 in MV4;11 and/or MIAPACA2 cells” value (“effective degradation of WDR5” below) is “able to effectively degrade WDR5”.

As to `C[C@@H]1CN(c2cc(F)c(C3=CCN(c4ncc(CN5CCN(C(=O)CCOCCOCCOCCNc6cccc7c6C(=O)N(C6CCC(=O)NC6=O)C7=O)CC5)cn4)CC3)cc2NC(=O)c2c[nH]c(=O)cc2C(F)(F)F)C[C@H](C)N1C` (stereo partly drawn) [XF078-158, N-(5-(1-(5-((4-(3-(2-(2-(2-((2-(2,6-dioxopiperidin-3-yl)-1,3-dioxoisoindolin-4-yl)amino)ethoxy)ethoxy)ethoxy)propanoyl)piperazin-1-yl)methyl)pyrimidin-2-yl)-1,2,3,6-tetrahydropyridin-4-yl)-4-fluoro-2-((3S,5R)-3,4,5-trimethylpiperazin-1-yl)phenyl)-6-oxo-4-(trifluoromethyl)-1,6-dihydropyridine-3-carboxamide], the “effective degradation of WDR5” value is “able to effectively degrade WDR5”.

For `Cc1ncsc1-c1ccc(CNC(=O)[C@@H]2C[C@@H](O)CN2C(=O)[C@@H](NC(=O)CCCCCCCCC(=O)N2CCN(Cc3cnc(N4CC=C(c5cc(NC(=O)c6c[nH]c(=O)cc6C(F)(F)F)c(N6C[C@@H](C)N(C)[C@@H](C)C6)cc5F)CC4)nc3)CC2)C(C)(C)C)cc1` [XF078-147, N-(4-fluoro-5-(1-(5-((4-(10-(((S)-1-((2S,4R)-4-hydroxy-2-((4-(4-methylthiazol-5-yl)benzyl)carbamoyl)pyrrolidin-1-yl)-3,3-dimethyl-1-oxobutan-2-yl)amino)-10-oxodecanoyl)piperazin-1-yl)methyl)pyrimidin-2-yl)-1,2,3,6-tetrahydropyridin-4-yl)-2-((3S,5R)-3,4,5-trimethylpiperazin-1-yl)phenyl)-6-oxo-4-(trifluoromethyl)-1,6-dihydropyridine-3-carboxamide], the “effective degradation of WDR5” value was “able to effectively degrade WDR5”.

`Cc1ncsc1-c1ccc(CNC(=O)[C@@H]2C[C@@H](O)CN2C(=O)[C@@H](NC(=O)CCCCCCCCCC(=O)N2CCN(Cc3cnc(N4CC=C(c5cc(NC(=O)c6c[nH]c(=O)cc6C(F)(F)F)c(N6C[C@@H](C)N(C)[C@@H](C)C6)cc5F)CC4)nc3)CC2)C(C)(C)C)cc1` [XF078-148, N-(4-fluoro-5-(1-(5-((4-(11-(((S)-1-((2S,4R)-4-hydroxy-2-((4-(4-methylthiazol-5-yl)benzyl)carbamoyl)pyrrolidin-1-yl)-3,3-dimethyl-1-oxobutan-2-yl)amino)-11-oxoundecanoyl)piperazin-1-yl)methyl)pyrimidin-2-yl)-1,2,3,6-tetrahydropyridin-4-yl)-2-((3S,5R)-3,4,5-trimethylpiperazin-1-yl)phenyl)-6-oxo-4-(trifluoromethyl)-1,6-dihydropyridine-3-carboxamide]: the “effective degradation of WDR5” value was “able to effectively degrade WDR5”.

In the case of `Cc1ncsc1-c1ccc(CNC(=O)[C@@H]2C[C@@H](O)CN2C(=O)[C@@H](NC(=O)CCCCC(=O)N2CC=C(c3cc(NC(=O)c4c[nH]c(=O)cc4C(F)(F)F)c(N4C[C@@H](C)N(C)[C@@H](C)C4)cc3F)CC2)C(C)(C)C)cc1` [XF078-41, N-(4-fluoro-5-(1-(6-(((S)-1-((2S,4R)-4-hydroxy-2-((4-(4-methylthiazol-5-yl)benzyl)carbamoyl)pyrrolidin-1-yl)-3,3-dimethyl-1-oxobutan-2-yl)amino)-6-oxohexanoyl)-1,2,3,6-tetrahydropyridin-4-yl)-2-((3S,5R)-3,4,5-trimethylpiperazin-1-yl)phenyl)-6-oxo-4-(trifluoromethyl)-1,6-dihydropyridine-3-carboxamide], the “effective degradation of WDR5” value is “able to effectively degrade WDR5”.

Take `Cc1ncsc1-c1ccc(CNC(=O)[C@@H]2C[C@@H](O)CN2C(=O)[C@@H](NC(=O)CCOCCC(=O)N2CCN(Cc3cnc(N4CC=C(c5cc(NC(=O)c6c[nH]c(=O)cc6C(F)(F)F)c(N6C[C@@H](C)N(C)[C@@H](C)C6)cc5F)CC4)nc3)CC2)C(C)(C)C)cc1` [XF078-133, N-(4-fluoro-5-(1-(5-((4-(3-(3-(((S)-1-((2S,4R)-4-hydroxy-2-((4-(4-methylthiazol-5-yl)benzyl)carbamoyl)pyrrolidin-1-yl)-3,3-dimethyl-1-oxobutan-2-yl)amino)-3-oxopropoxy)propanoyl)piperazin-1-yl)methyl)pyrimidin-2-yl)-1,2,3,6-tetrahydropyridin-4-yl)-2-((3S,5R)-3,4,5-trimethylpiperazin-1-yl)phenyl)-6-oxo-4-(trifluoromethyl)-1,6-dihydropyridine-3-carboxamide]: the “effective degradation of WDR5” value is “able to effectively degrade WDR5”.

Consider `Cc1ncsc1-c1ccc(CNC(=O)[C@@H]2C[C@@H](O)CN2C(=O)[C@@H](NC(=O)CCOCCOCCOCCOCCC(=O)N2CCN(c3ncc(-c4cc(NC(=O)c5ccc(F)cc5C(F)(F)F)c(N5C[C@@H](C)N(C)[C@@H](C)C5)cc4F)cn3)CC2)C(C)(C)C)cc1` [XF078-105, (2S,4R)-1-((S)-2-(tert-butyl)-19-(4-(5-(2-fluoro-5-(4-fluoro-2-(trifluoromethyl)benzamido)-4-((3S,5R)-3,4,5-trimethylpiperazin-1-yl)phenyl)pyrimidin-2-yl)piperazin-1-yl)-4,19-dioxo-7,10,13,16-tetraoxa-3-azanonadecanoyl)-4-hydroxy-N-(4-(4-methylthiazol-5-yl)benzyl)pyrrolidine-2-carboxamide], for which the “effective degradation of WDR5” value is reported as “able to effectively degrade WDR5”.

On to `C[C@@H]1CN(c2cc(F)c(C3=CCN(c4ncc(CN5CCN(C(=O)CCOCCOCCNc6cccc7c6C(=O)N(C6CCC(=O)NC6=O)C7=O)CC5)cn4)CC3)cc2NC(=O)c2c[nH]c(=O)cc2C(F)(F)F)C[C@H](C)N1C` (stereo partly drawn) [XF078-157, N-(5-(1-(5-((4-(3-(2-(2-((2-(2,6-dioxopiperidin-3-yl)-1,3-dioxoisoindolin-4-yl)amino)ethoxy)ethoxy)propanoyl)piperazin-1-yl)methyl)pyrimidin-2-yl)-1,2,3,6-tetrahydropyridin-4-yl)-4-fluoro-2-((3S,5R)-3,4,5-trimethylpiperazin-1-yl)phenyl)-6-oxo-4-(trifluoromethyl)-1,6-dihydropyridine-3-carboxamide], for which the “effective degradation of WDR5” value is given as “able to effectively degrade WDR5”.

In the case of `Cc1ncsc1-c1ccc(CNC(=O)[C@@H]2C[C@@H](O)CN2C(=O)[C@@H](NC(=O)CCOCCOCCOCCC(=O)NCCN2CCN(Cc3ccc(F)c(-c4ccc(N5C[C@@H](C)N(C)[C@@H](C)C5)c(NC(=O)c5c[nH]c(=O)cc5C(F)(F)F)c4)c3)CC2)C(C)(C)C)cc1` [XF078-6, N-(2′-fluoro-5′-((4-((S)-18-((2S,4R)-4-hydroxy-2-((4-(4-methylthiazol-5-yl)benzyl)carbamoyl)pyrrolidine-1-carbonyl)-19,19-dimethyl-4,16-dioxo-7,10,13-trioxa-3,17-diazaicosyl)piperazin-1-yl)methyl)-4-((3S,5R)-3,4,5-trimethylpiperazin-1-yl)-[1,1′-biphenyl]-3-yl)-6-oxo-4-(trifluoromethyl)-1,6-dihydropyridine-3-carboxamide], the “effective degradation of WDR5” value is on record as “able to effectively degrade WDR5”.

With `Cc1ncsc1-c1ccc(CNC(=O)[C@@H]2C[C@@H](O)CN2C(=O)[C@@H](NC(=O)CCCCCCCCC(=O)N2CCN(c3ncc(-c4cc(NC(=O)c5ccc(F)cc5C(F)(F)F)c(N5C[C@@H](C)N(C)[C@@H](C)C5)cc4F)cn3)CC2)C(C)(C)C)cc1` [XF078-114, (2S,4R)-1-((S)-2-(10-(4-(5-(2-fluoro-5-(4-fluoro-2-(trifluoromethyl)benzamido)-4-((3S,5R)-3,4,5-trimethylpiperazin-1-yl)phenyl)pyrimidin-2-yl)piperazin-1-yl)-10-oxodecanamido)-3,3-dimethylbutanoyl)-4-hydroxy-N-(4-(4-methylthiazol-5-yl)benzyl)pyrrolidine-2-carboxamide], the “effective degradation of WDR5” value is “able to effectively degrade WDR5”.
